# Values quoted from earlier work, collected in patent US20160165928A1, “METHODS OF REDUCING METHANE EMISSION DERIVED FROM RUMINAL FERMENTATION WHILE SIMULTANEOUSLY REDUCING RISK OF NITRATE INTOXICATION” (Grasp Indústria e Comércio Ltda., priority 2011, published 2016).
# Columns and labels:
# [1] = test system: methane produced by rumen fermentation; conditions: in vivo
# [2] = test system: ruminal accumulation of nitrite; conditions: in vivo
# [3] = test system: nitrate reductase
SMILES,methane emission in ruminants [1],ruminal accumulation of nitrite [2],other results
O=[N+]([O-])[O-].O=[N+]([O-])[O-].[Ca+2] [calcium nitrate],reduced methane emission,–,–
O=S(=O)([O-])[O-].[Cu+2] [copper sulfate],–,reduction of ruminal accumulation of nitrite,intoxication risks [2]: minimization of intoxication risks
O=S(=O)([O-])[O-].[Mg+2] [magnesium sulfate],–,reduction of ruminal accumulation of nitrite,–
O=[N+]([O-])[O-].[K+] [potassium nitrate],reduced methane emission,–,–
O=[N+]([O-])[O-].[Na+] [sodium nitrate],reduced methane emission,–,–
O=S(=O)([O-])[O-].[Na+].[Na+] [sodium sulfate],–,reduction of ruminal accumulation of nitrite,–
[Na+].[Na+].[O]=[W](=[O])([O-])[O-] [sodium tungstate],–,–,inhibition of nitrate reductase [3]: inhibit nitrate reductase
